Molecular target: T1, PAR4 (Homo sapiens, UniProt Q96RI0)
T1 construct: expressed in transfected cells; host or cells: HEK293 PAR4 Clone 1.2A (BMS Arctic ID 383940)
T1 sequence (Q96RI0 18-385): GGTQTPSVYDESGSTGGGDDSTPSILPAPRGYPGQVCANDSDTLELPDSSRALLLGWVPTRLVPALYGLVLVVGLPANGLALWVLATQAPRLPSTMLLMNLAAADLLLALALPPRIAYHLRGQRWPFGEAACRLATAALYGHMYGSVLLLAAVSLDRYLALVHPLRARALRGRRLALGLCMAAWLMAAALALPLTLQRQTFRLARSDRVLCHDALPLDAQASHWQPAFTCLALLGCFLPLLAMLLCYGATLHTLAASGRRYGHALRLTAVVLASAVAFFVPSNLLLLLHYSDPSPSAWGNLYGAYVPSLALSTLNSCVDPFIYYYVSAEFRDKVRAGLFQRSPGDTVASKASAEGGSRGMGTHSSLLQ
Assay: PAR4 FLIPR assay (antagonism of agonist peptide-induced calcium mobilization)
Assay type: cell-based
How it was run: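 Antagonism was taken as block of calcium mobilization evoked by the agonist peptide H-Ala-Phe(4-F)-Pro-Gly-Trp-Leu-Val-Lys-Asn-[…]-NH2, added after 30 min room-temperature compound preincubation in dye-loaded PAR4-transfected HEK293 cells (endogenous PAR1). Fluorescence was read on FDSS, with compound addition alone used as the agonist counter-screen; values come from 11-point concentration-response curves.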

IC50 [nM]	SMILES
1.2	COc1cnc2c(-c3nc4ccc5c(c4s3)C[C@H](COC(=O)Nc3cnc(C)nc3)O5)cc(C)cc2n1 [Example 144, (R)-(2-(2-methoxy-7-methylquinoxalin-5-yl)-7,8-dihydrobenzofuro[5,4-d]thiazol-7-yl)me thyl (2-methylpyrimidin-5-yl)carbamate]
5	COc1cnc2c(-c3nc4cc(F)c5c(c4s3)C[C@@H](CNC(=O)OCC(C)C)O5)cc(C)cc2n1 [Example 246, (S)-isobutyl ((5-fluoro-2-(2-methoxy-7-methylquinoxalin-5-yl)-7,8-dihydrobenzofuro[5,4-d]thiazol-7-yl)methyl)carbamate]
19	COc1cnc2c(-c3nc4cc(F)c5c(c4s3)C[C@@](C)(COC(=O)Nc3cccnc3)O5)cc(C)cc2n1 [Example 175, (S)-(5-fluoro-2-(2-methoxy-7-methylquinoxalin-5-yl)-7-methyl-7,8-dihydrobenzofuro[5,4-d]thiazol-7-yl)methyl pyridin-3-ylcarbamate]
3.4	COc1cnc2c(-c3nc4c(C)cc5c(c4s3)OCC(COC(=O)Nc3ccc(N(C)C)nc3)O5)cc(C)cc2n1 (stereo not drawn) [Example 116, (2-(2-methoxy-7-methylquinoxalin-5-yl)-4-methyl-7,8-dihydro-[1,4]dioxino[2′,3′:3,4]benzo[1,2-d]thiazol-7-yl)methyl (6-(dimethylamino)pyridin-3-yl)carbamate]
14	COc1cnc2c(-c3nc4c(Cl)cc5c(c4s3)C[C@@H](COC(=O)Nc3ccc(C)nc3)O5)cc(C)cc2n1 (single isomer, unassigned) [Example 147]
130	COc1ccc(NC(=O)OC[C@@H]2COc3c(cc(Cl)c4nc(-c5cc(C)cc6nc(OC)cnc56)sc34)O2)cn1 (single isomer, unassigned) [Example 2]
2.7	COc1cnc2c(-c3nc4c(F)cc5c(c4s3)OC[C@H](COC(=O)Nc3ccc(C)nc3)O5)cc(C)cc2n1 [Example 76, (R)-(4-fluoro-2-(2-methoxy-7-methylquinoxalin-5-yl)-7,8-dihydro-[1,4]dioxino[2′,3′:3,4]benzo[1,2-d]thiazol-7-yl)methyl (6-methylpyridin-3-yl)carbamate]
6.3	C=Cc1cc(-c2nc3c(C)cc4c(c3s2)OCC(COC(=O)Nc2ccc(OC)nc2)O4)c2ncc(OC)nc2c1 (stereo not drawn) [Example 86, (2-(2-methoxy-7-vinylquinoxalin-5-yl)-4-methyl-7,8-dihydro-[1,4]dioxino[2′,3′:3,4]benzo [1,2-d]thiazol-7-yl)methyl (6-methoxypyridin-3-yl)carbamate]
1.3	COc1cnc2c(-c3nc4cc(F)c5c(c4s3)C[C@@H](CNC(=O)OCc3ccccc3)O5)cc(C)cc2n1 [Example 211, (S)-benzyl ((5-fluoro-2-(2-methoxy-7-methylquinoxalin-5-yl)-7,8-dihydrobenzofuro[5,4-d]thiazol-7-yl)methyl)carbamate]
5.7	COc1cnc2c(-c3nc4cc(F)c5c(c4s3)C[C@H](COC(=O)Nc3ccc(F)nc3)O5)cc(C)cc2n1 [Example 170, (R)-(5-fluoro-2-(2-methoxy-7-methylquinoxalin-5-yl)-7,8-dihydrobenzofuro[5,4-d]thiazo 1-7-yl)methyl (6-fluoropyridin-3-yl)carbamate]
4	COc1cnc2c(-c3nc4ccc5c(c4s3)C[C@@H](CNC(=O)OCC(C)C)O5)cc(C)cc2n1 [Example 224, (S)-isobutyl ((2-(2-methoxy-7-methylquinoxalin-5-yl)-7,8-dihydrobenzofuro [5,4-d]thiazol-7-yl)methyl)carbamate]
1.6	COc1cnc2c(-c3nc4ccc5c(c4s3)C[C@](C)(COC(=O)Nc3cccc(C#N)c3)O5)cc(C)cc2n1 [Example 196, (R)-(2-(2-methoxy-7-methylquinoxalin-5-yl)-7-methyl-7,8-dihydrobenzofuro[5,4-d]thiazol-7-yl)methyl (3-cyanophenyl)carbamate]
5	COc1cnc2c(-c3nc4c(C(O)C(C)(C)C)cc5c(c4s3)OCCO5)cc(Cl)cc2c1 (single isomer, unassigned) [Example 274, 1-(2-(6-chloro-3-methoxyquinolin-8-yl)-7,8-dihydro-[1,4]dioxino[2′,3′:3,4]benzo[1,2-d]thiazol-4-yl)-2,2-dimethylpropan-1-ol]
67	COc1cnc2c(-c3nc4c(C)cc5c(c4s3)OCC(COC(=O)Nc3cncc(-c4ccccc4)c3)O5)cc(C)cc2n1 (stereo not drawn) [Example 126, (2-(2-methoxy-7-methylquinoxalin-5-yl)-4-methyl-7,8-dihydro-[1,4]dioxino[2′,3′:3,4]benzo[1,2-d]thiazol-7-yl)methyl (5-phenylpyridin-3-yl)carbamate]
1.6	COc1cnc2c(-c3nc4c(C)cc5c(c4s3)OC[C@H](COC(=O)Nc3ccc(F)nc3)O5)cc(C)cc2n1 [Example 41, (R)-(2-(2-methoxy-7-methylquinoxalin-5-yl)-4-methyl-7,8-dihydro-[1,4]dioxino[2′,3′:3,4]benzo[1,2-d]thiazol-7-yl)methyl (6-fluoropyridin-3-yl)carbamate]
2.1	COc1cnc2c(-c3nc4ccc5c(c4s3)OC[C@H](COC(=O)Nc3cnc(C)nc3)O5)cc(Cl)cc2c1 [Example 266, (R)-(2-(6-chloro-3-methoxyquinolin-8-yl)-7,8-dihydro-[1,4]dioxino[2′,3′:3,4]benzo[1,2-d]thiazol-7-yl)methyl (2-methylpyrimidin-5-yl)carbamate]
3.4	COC(=O)c1cncc(NC(=O)OCC2COc3c(cc(C)c4nc(-c5cc(C)cc6nc(OC)cnc56)sc34)O2)c1 (stereo not drawn) [Example 138, methyl 5-((((2-(2-methoxy-7-methylquinoxalin-5-yl)-4-methyl-7,8-dihydro-[1,4]dioxino[2′,3′:3,4]benzo[1,2-d]thiazol-7-yl)methoxy)carbonyl)amino)nicotinate]
1.2	COc1cnc2c(-c3nc4c(C)cc5c(c4s3)OC[C@H](COC(=O)Nc3ccc(Cl)nc3)O5)cc(C)cc2n1 [Example 47, (R)-(2-(2-methoxy-7-methylquinoxalin-5-yl)-4-methyl-7,8-dihydro-[1,4]dioxino[2′,3′:3,4]benzo[1,2-d]thiazol-7-yl)methyl (6-chloropyridin-3-yl)carbamate]
370	COc1cnc2c(-c3nc4cc(F)c5c(c4s3)C(C)(C)[C@H](CO)O5)cc(C)cc2n1 (single isomer, unassigned) [Example 206]
21	COc1cnc2c(-c3nc4c(C)cc5c(c4s3)OC[C@H](COC(=O)Nc3ccc(-n4cnc(C)n4)nc3)O5)cc(C)cc2n1 [Example 55, (R)-(2-(2-methoxy-7-methylquinoxalin-5-yl)-4-methyl-7,8-dihydro-[1,4]dioxino [2′,3′:3,4]benzo[1,2-d]thiazol-7-yl)methyl (6-(3-methyl-1H-1,2,4-triazol-1-yl)pyridin-3-yl)carbamate]
2.3	COc1cnc2c(-c3nc4c(C(O)C(C)(C)C)cc5c(c4s3)OCCO5)cc(C)cc2n1 (single isomer, unassigned) [Example 277, 1-(2-(2-methoxy-7-methylquinoxalin-5-yl)-7,8-dihydro-[1,4]dioxino[2′,3′:3,4]benzo[1,2-d]thiazol-4-yl)-2,2-dimethylpropan-1-ol]
1.7	COc1cnc2c(-c3nc4ccc5c(c4s3)OC[C@H](COC(=O)Nc3cnc4[nH]ccc4c3)O5)cc(C)cc2n1 [Example 107, (R)-(2-(2-methoxy-7-methylquinoxalin-5-yl)-7,8-dihydro-[1,4]dioxino[2′,3′:3,4]benzo [1,2-d]thiazol-7-yl)methyl 1H-pyrrolo[2,3-b]pyridin-5-ylcarbamate]
1.6	COc1ccc(NC(=O)OC[C@H]2Cc3c(c(F)cc4nc(-c5cc(C)cc6nc(OC)cnc56)sc34)O2)cn1 [Example 164, (R)-(5-fluoro-2-(2-methoxy-7-methylquinoxalin-5-yl)-7,8-dihydrobenzofuro[5,4-d]thiazo 1-7-yl)methyl (6-methoxypyridin-3-yl)carbamate]
3.3	COC(=O)c1cc(NC(=O)OCC2COc3c(cc(C)c4nc(-c5cc(C)cc6nc(OC)cnc56)sc34)O2)ccn1 (stereo not drawn) [Example 134, methyl 4-((((2-(2-methoxy-7-methylquinoxalin-5-yl)-4-methyl-7,8-dihydro-[1,4]dioxino[2′,3′:3,4]benzo[1,2-d]thiazol-7-yl)methoxy)carbonyl)amino) picolinate]
8.5	COc1cnc2c(-c3cc4c5c(cc(Cl)c4o3)O[C@@H](COC(=O)Nc3cccnc3)CO5)cc(C)cc2n1 [Example 10, (R)-(6-chloro-8-(2-methoxy-7-methylquinoxalin-5-yl)-2,3-dihydro-[1,4]dioxino[2,3-e]benzofuran-3-yl)methyl pyridin-3-ylcarbamate]
3.8	COc1cnc2c(-c3cc4c5c(ccc4o3)O[C@@H](COC(=O)Nc3ccnc(C)c3)CO5)cc(C)cc2n1 [Example 12, (R)-(8-(2-methoxy-7-methylquinoxalin-5-yl)-2,3-dihydro-[1,4]dioxino[2,3-e]benzofuran-3-yl)methyl (2-methylpyridin-4-yl)carbamate]
2.9	COc1cnc2c(-c3cc4c5c(cc(C)c4o3)O[C@@H](COC(=O)Nc3ccc(C)nc3)CO5)cc(C)cc2n1 [Example 14, (R)-(8-(2-methoxy-7-methylquinoxalin-5-yl)-6-methyl-2,3-dihydro-[1,4]dioxino[2,3-e]benzofuran-3-yl)methyl (6-methylpyridin-3-yl)carbamate]

Source: patent US11932658B2 (BRISTOL-MYERS SQUIBB COMPANY, priority 2016, dated 2024)
